This is an account of results in US12728123B2, “Product” (Sesh Products Inc., priority 2012, dated 2026).

For this data set the following is noted: at a pH of about 8.8.

Take `CN1CCCC1c1cccnc1` (stereo not shown) [nicotine]: the “nicotine in the nonprotonated form” value is “approximately 90%”.
